# Legend:
# Format in all cases: in vivo
# [1] = tested on: formalin-induced inflammatory-mediated pain response (hind-paw licking); experiment: Mouse Formalin Assay; conditions: i.p.; for acute response, decrease from control: acute phase
# Protocol: The mouse formalin test is an acute and chronic model for testing the ability of a test compound for the treatment of pain.
# In the Mouse Formalin Test, 0.5% formalin was injected s.c. into the plantar region of the hind-paw of adult male mice to induce an inflammatory-mediated pain response. Pain was expressed as licking of the injected area in a bi-modal manner—acute and chronic phase. The acute phase occurred immediately and lasted approximately 10-15 min post-injection, representing direct stimulation of pain fibers. Licking behavior resumes approximately 10 mins later (˜20 min post injection) and lasted 10-15 min, representing the chronic phase due to centralized sensitization in dorsal horn neurons and hypothesized to be caused by the release of inflammatory mediators such as cytokines.
# Activity in the acute phase of the formalin test is an indicator of acute pain believed to correlate with peripheral pain pathways.
# [2] = tested on: Taxol induced mechanical allodynia in the rat hind paw; experiment: Taxol-Induced Peripheral Neuropathy (von Frey paw withdrawal threshold); conditions: 100 mg/kg, p.o. daily for 12 days with Taxol 2 mg/kg i.p.; day 12; not statistically different from baseline (16.42±2.14 g)
# Text: Peripheral neuropatheis are chronic conditions that arise when nerves are damaged by trauma, disease, metabolic insufficiency or by certain drugs and toxins. The sensory disturbances associated with chemotherapeutic agents, such as paclitaxel (Taxol), range from mild tingling to spontaneous burning, typically in the hands and feet. Symptoms become more intense with continued therapy and can lead to weakness, ataxia, numbness and pain. Taxol-induced peripheral neuropathy in rats have therefore been used as a model of peripheral neuropathies in humans.
# Male Sprague-Dawley rats (Harlan) were randomly assigned to two treatment groups: vehicle (0.5% hypromellose, p.o.) and Compound #1 (100 mg/kg, p.o). All rats were injected with Taxol (2 mg/kg, i.p.) on days 1, 3, 5 and 7. At the same time, rats received daily oral gavage of vehicle or Compound #1, starting the day of the first Taxol injection and continuing for 12 days.
# All animals were acclimated to the allodynia procedure 2-3 days prior to testing allowing the rats to habituate to the testing devices. Rats underwent Von Frey hair testing as a measure of mechanical allodynia at baseline and on days 5 and 12 post-Taxol injection. Tactile sensitivity was measured using calibrated filaments touched to the plantar surfaces of the affected limb. […]
# [3] = tested on: mechanical (tactile) allodynia after L5 nerve ligation; experiment: Rat Chung Model of Neuropathic Pain (L5 nerve ligation, von Frey mechanical allodynia)
# Protocol: The rat Chung model is an assay used in determining whether a compound is useful for the treatment of neuropathic pain (Kim and Chung, 1994; Chaplan et al., 1994).
# In this study, male Sprague Dawley rats (145-165 g; Harlan) were anesthetized and the L5 nerve was isolated and ligated with silk suture material resulting in mechanical allodynia. Two weeks post-ligation, rats were dosed acutely with vehicle (an aqueous solution of 0.5% methylcellulose) or Compound #1 at 15, 30, 60, 120 or 240 mg/kg, p.o. Mechanical (tactile) allodynia was quantified by recording the pressure at which the affected paw withdrew from a graded stimulus (von Frey hairs) at 30 min, 1, 2 and 4 h post-dosing. Data were normalized and results are presented as % MPE (maximum […] effect) of the drug.
# [4] = 107 mg/kg, 15 min prior to formalin injection, p<0.01
smiles,measurement,setting,value
"NS(=O)(=O)NCc1csc2ccccc12 [Compound #1, N-(benzo[b]thien-3-ylmethyl)-sulfamide]","acute response, decrease from control","[1]; 53 mg/kg, p<0.05",32%
same,"chronic phase response, decrease from control","[1]; 53 mg/kg, p<0.01",67%
same,"acute response, decrease from control",[1]; [4],52%
same,"chronic phase response, decrease from control",[1]; [4],88%
same,withdrawal force,[2],14.32 ± 5.45 g
same,improvement in the allodynic response (% MPE),"[3]; 240 mg/kg, p.o., at 1 h post-dosing",80%
same,ED50,"[3]; Rattus norvegicus, po, at 1 h post-dosing, n=5 rats/dose, read-out: acute oral ED50",169 mg/kg
same,time of peak efficacy post-dosing,"[3]; p.o., efficacy observed at 30 min, gone by 4 h",1 h

# — patent US20070191452A1, “USE OF BENZO-HETEROARYL SULFAMIDE DERIVATIVES FOR THE TREATMENT OF PAIN” (priority 2006, published 2007)
